Test system: patients with advanced solid tumors
Test: Phase 1 trial: adverse events (CTCAE), DLT and MTD
Assay type: in vivo, human
Description: The phase 1 trial was a two-part, multicenter, open-label, nonrandomized study to evaluate the safety and preliminary efficacy of HA121-28.
Safety, tolerability, and PK of HA121-28 was assessed in dose-escalation part. The single-patient accelerated titration was carried out at 25 mg and 50 mg; then, the dose escalation proceeded according to a “3 + 3” design in dose range of 100 to 800 mg. Escalation to a higher dose level was considered by the satisfactory review of safety results from the previous lower dose during the first cycle.
The dose-expansion part aims to further access the safety and efficacy of HA121-28 at the selected doses based on data from the dose-escalation part. The RP2D was determined by investigators in view of a thorough review of safety, PK, and efficacy results.
In phase 1 trial, during the dose-escalation part, patients first administered HA121-28 in a single ascending dose under the fasted state, then followed up for seven days. Then, patients received ascending doses of HA121-28 (q.d.) on a 21-day on and 7-day off treatment scheme for a 28-day cycle. For patients deemed beneficial from the treatment by investigators, treatment could remain until disease progression, or they discontinued from the study. In the dose-expansion part of phase 1, as well as phase 2, patients received HA121-28 (q.d.) at the selected doses on a 21-day on and 7-day off treatment scheme until disease progression, or they discontinued from the study.
Treatment-emergent adverse events (TEAEs) were documented during the entire study period. The predefined adverse event of special interest (AESI) was ≥ grade 3 prolonged QT interval. Tumor imaging was performed using contrast-enhanced computed tomography or magnetic resonance imaging at screening, Day 28 of the first cycle, then approximately every eight weeks till the end of the study for phase 1; in phase 2, imaging was scheduled at screening, and every eight weeks during the first 40 weeks, followed by every 12 weeks for the rest of the study period. RECIST 1.1 was used by the independent review committee or investigators for assessment of tumor response. After the original assessment, a repeated assessment was required around four weeks later to confirm a complete or partial response.
The primary endpoints of phase 1 were to investigate the MTD, dose-limiting toxicities, and the incidence and severity of TEAEs. Each TEAE was graded according to the Common Terminology Criteria for Adverse Events (CTCAE, version 5.0) and coded by Medical Dictionary for Regulatory Activities (MedDRA, version 21.0). The secondary endpoints included calculating PK parameters, assessing the ORR and DCR at the recommended dose by investigators as per RECIST 1.1. The exploratory endpoint was PFS.
If grade 2 or higher toxicity related to the study drug occurs in Groups 1 and 2 (as determined by the investigator), dose escalation will proceed using a 3+3 design starting from that dose level. If no DLT is observed at the 800 mg/d dose level after dose escalation, a meeting of investigators will be convened to decide whether to proceed with further dose escalation based on the available PK data, safety, and tolerability information.
5. Definition of DLT and MTD
The following events related to the study drug (including those that are definitely related, highly likely to be related, and possibly related):
(1) Grade 4 hematologic toxicity or grade 3 neutropenia accompanied by a fever of 38.5℃ or higher, or grade 3 thrombocytopenia accompanied by severe bleeding.
(2) Patients who discontinued the medication for more than 7 days due to unresolved toxicity reactions or who discontinued the medication more than twice due to toxicity […]
(3) In the context of supportive treatment, diarrhea of grade 2 lasting more than 7 days, or grade 3 diarrhea lasting more than 3 days.

COc1cc2c(Nc3ccc(Br)cc3F)ncnc2cc1OCCCCN(C)C.Cl.Cl [HA121-28, N-(4-bromo-2-fluorophenyl)-7-(4-(dimethylamino)butoxy)-6-methoxy quinazolin-4-amine dihydrochloride]
1 (25.0) No. (%): Serious TEAE: Any (Phase 1, 300 mg (N=4)) | Serious TEAE: Aortic intramural hematoma (Phase 1, 300 mg (N=4))
0 No. (%): Serious TEAE: ALT increased (Phase 1, 300 mg (N=4)) | Serious TEAE: AST increased (Phase 1, 300 mg (N=4)) | Serious TEAE: Abdominal Pain (Phase 1, 300 mg (N=4)) | Serious TEAE: Abdominal distension (Phase 1, 300 mg (N=4)) | Serious TEAE: Acute cholecystitis (Phase 1, 300 mg (N=4)) | Serious TEAE: Acute pancreatitis (Phase 1, 300 mg (N=4)) | Serious TEAE: Anal abscess (Phase 1, 300 mg (N=4)) | Serious TEAE: Arrhythmia (Phase 1, 300 mg (N=4)) | Serious TEAE: Blood bilirubin increased (Phase 1, 300 mg (N=4)) | Serious TEAE: Blood creatinine increased (Phase 1, 300 mg (N=4)) | Serious TEAE: COVID-19 (Phase 1, 300 mg (N=4)) | Serious TEAE: Cardiac tamponade (Phase 1, 300 mg (N=4)) | Serious TEAE: Coronary artery atherosclerosis (Phase 1, 300 mg (N=4)) | Serious TEAE: Death (Phase 1, 300 mg (N=4)) | Serious TEAE: Diarrhea (Phase 1, 300 mg (N=4)) | Serious TEAE: Drug eruption (Phase 1, 300 mg (N=4)) | Serious TEAE: Dyspnea (Phase 1, 300 mg (N=4)) | Serious TEAE: Embolism (Phase 1, 300 mg (N=4)) | Serious TEAE: Erythema multiforme (Phase 1, 300 mg (N=4)) | Serious TEAE: Headache (Phase 1, 300 mg (N=4)) | Serious TEAE: Hemoptysis (Phase 1, 300 mg (N=4)) | Serious TEAE: Hydronephrosis (Phase 1, 300 mg (N=4)) | Serious TEAE: Hypertension (Phase 1, 300 mg (N=4)) | Serious TEAE: Hypoalbuminemia (Phase 1, 300 mg (N=4)) | Serious TEAE: Intestinal obstruction (Phase 1, 300 mg (N=4)) | Serious TEAE: Intra-abdominal fluid collection (Phase 1, 300 mg (N=4)) | Serious TEAE: Intracranial tumor hemorrhage (Phase 1, 300 mg (N=4)) | Serious TEAE: Liver injury (Phase 1, 300 mg (N=4)) | Serious TEAE: Lung adenocarcinoma (Phase 1, 300 mg (N=4)) | Serious TEAE: Malignant neoplasm progression (Phase 1, 300 mg (N=4)) | Serious TEAE: Multiple organ dysfunction syndrome (Phase 1, 300 mg (N=4)) | Serious TEAE: Nausea (Phase 1, 300 mg (N=4)) | Serious TEAE: Nephrolithiasis (Phase 1, 300 mg (N=4)) | Serious TEAE: Platelet counts decreased (Phase 1, 300 mg (N=4)) | Serious TEAE: Pleural effusion (Phase 1, 300 mg (N=4)) | Serious TEAE: Pneumonia (Phase 1, 300 mg (N=4)) | Serious TEAE: Pneumonitis (Phase 1, 300 mg (N=4)) | Serious TEAE: Prolonged QT interval (Phase 1, 300 mg (N=4)) | Serious TEAE: Pulmonary embolism (Phase 1, 300 mg (N=4)) | Serious TEAE: Pyrexia (Phase 1, 300 mg (N=4)) | Serious TEAE: Rash (Phase 1, 300 mg (N=4)) | Serious TEAE: Rectal hemorrhage (Phase 1, 300 mg (N=4)) | Serious TEAE: Respiratory failure (Phase 1, 300 mg (N=4)) | Serious TEAE: Seizure (Phase 1, 300 mg (N=4)) | Serious TEAE: Septic shock (Phase 1, 300 mg (N=4)) | Serious TEAE: Sudden cardiac arrest (Phase 1, 300 mg (N=4)) | Serious TEAE: Sudden death (Phase 1, 300 mg (N=4)) | Serious TEAE: Upper respiratory tract infection (Phase 1, 300 mg (N=4)) | Serious TEAE: Ventricular tachycardia (Phase 1, 300 mg (N=4)) | Serious TEAE: Vomiting (Phase 1, 300 mg (N=4)) | Serious TEAE: Weight loss (Phase 1, 300 mg (N=4)) | Serious TRAE: ALT increased (Phase 1, 300 mg (N=4)) | Serious TRAE: AST increased (Phase 1, 300 mg (N=4)) | Serious TRAE: Abdominal Pain (Phase 1, 300 mg (N=4)) | Serious TRAE: Abdominal distension (Phase 1, 300 mg (N=4)) | Serious TRAE: Acute cholecystitis (Phase 1, 300 mg (N=4)) | Serious TRAE: Acute pancreatitis (Phase 1, 300 mg (N=4)) | Serious TRAE: Anal abscess (Phase 1, 300 mg (N=4)) | Serious TRAE: Any (Phase 1, 300 mg (N=4)) | Serious TRAE: Aortic intramural hematoma (Phase 1, 300 mg (N=4)) | Serious TRAE: Arrhythmia (Phase 1, 300 mg (N=4)) | Serious TRAE: Blood bilirubin increased (Phase 1, 300 mg (N=4)) | Serious TRAE: Blood creatinine increased (Phase 1, 300 mg (N=4)) | Serious TRAE: COVID-19 (Phase 1, 300 mg (N=4)) | Serious TRAE: Cardiac tamponade (Phase 1, 300 mg (N=4)) | Serious TRAE: Coronary artery atherosclerosis (Phase 1, 300 mg (N=4)) | Serious TRAE: Death (Phase 1, 300 mg (N=4)) | Serious TRAE: Diarrhea (Phase 1, 300 mg (N=4)) | Serious TRAE: Drug eruption (Phase 1, 300 mg (N=4)) | Serious TRAE: Dyspnea (Phase 1, 300 mg (N=4)) | Serious TRAE: Embolism (Phase 1, 300 mg (N=4)) | Serious TRAE: Erythema multiforme (Phase 1, 300 mg (N=4)) | Serious TRAE: Headache (Phase 1, 300 mg (N=4)) | Serious TRAE: Hemoptysis (Phase 1, 300 mg (N=4)) | Serious TRAE: Hydronephrosis (Phase 1, 300 mg (N=4)) | Serious TRAE: Hypertension (Phase 1, 300 mg (N=4)) | Serious TRAE: Hypoalbuminemia (Phase 1, 300 mg (N=4)) | Serious TRAE: Intestinal obstruction (Phase 1, 300 mg (N=4)) | Serious TRAE: Intra-abdominal fluid collection (Phase 1, 300 mg (N=4)) | Serious TRAE: Intracranial tumor hemorrhage (Phase 1, 300 mg (N=4)) | Serious TRAE: Liver injury (Phase 1, 300 mg (N=4)) | Serious TRAE: Lung adenocarcinoma (Phase 1, 300 mg (N=4)) | Serious TRAE: Malignant neoplasm progression (Phase 1, 300 mg (N=4)) | Serious TRAE: Multiple organ dysfunction syndrome (Phase 1, 300 mg (N=4)) | Serious TRAE: Nausea (Phase 1, 300 mg (N=4)) | Serious TRAE: Nephrolithiasis (Phase 1, 300 mg (N=4)) | Serious TRAE: Platelet counts decreased (Phase 1, 300 mg (N=4)) | Serious TRAE: Pleural effusion (Phase 1, 300 mg (N=4)) | Serious TRAE: Pneumonia (Phase 1, 300 mg (N=4)) | Serious TRAE: Pneumonitis (Phase 1, 300 mg (N=4)) | Serious TRAE: Prolonged QT interval (Phase 1, 300 mg (N=4)) | Serious TRAE: Pulmonary embolism (Phase 1, 300 mg (N=4)) | Serious TRAE: Pyrexia (Phase 1, 300 mg (N=4)) | Serious TRAE: Rash (Phase 1, 300 mg (N=4)) | Serious TRAE: Rectal hemorrhage (Phase 1, 300 mg (N=4)) | Serious TRAE: Respiratory failure (Phase 1, 300 mg (N=4)) | Serious TRAE: Seizure (Phase 1, 300 mg (N=4)) | Serious TRAE: Septic shock (Phase 1, 300 mg (N=4)) | Serious TRAE: Sudden cardiac arrest (Phase 1, 300 mg (N=4)) | Serious TRAE: Sudden death (Phase 1, 300 mg (N=4)) | Serious TRAE: Upper respiratory tract infection (Phase 1, 300 mg (N=4)) | Serious TRAE: Ventricular tachycardia (Phase 1, 300 mg (N=4)) | Serious TRAE: Vomiting (Phase 1, 300 mg (N=4)) | Serious TRAE: Weight loss (Phase 1, 300 mg (N=4)) | Serious TEAE: ALT increased (Phase 1, 450 mg (N=79)) | Serious TEAE: AST increased (Phase 1, 450 mg (N=79)) | Serious TEAE: Abdominal Pain (Phase 1, 450 mg (N=79)) | Serious TEAE: Abdominal distension (Phase 1, 450 mg (N=79))
1 (1.3) No. (%): Serious TEAE: Acute cholecystitis (Phase 1, 450 mg (N=79))
36.7%: incidence of ≥ grade-3 TEAEs (450 mg/day)
two: patients with dose-limiting toxicities (800 mg (q.d.), grade-3 decreased appetite, grade-3 prolonged QT interval)
68.8%: incidence of ≥ grade-3 TEAEs (600 mg/day)
